According to patent US11385220B2, “Methods for measuring oxidative stress in human body fluids” (CHUNGDO PHARM. CO., LTD, priority 2017, dated 2022):

Assays:
[1] = Crystallization of TBA-containing solution depending on amount of DMSO added (test paper, room temperature); format: physicochemical; conditions: test paper immersed in TBA solution, standing at room temperature, increasing amount of DMSO (FIG. 1)
Source text: FIG. 1 is an image showing crystallization of a solution containing TBA as a color indicator depending on the amount of DMSO added.

[2] = Solubility of TBA in solvent with or without DMSO; format: physicochemical
Procedure: In the prior art (Korean Patent Laid-open No. 10-2013-0088623), the amount of TBA added was only 2 to 3%.
In the conventional published Patent No. 10-2013-0088623, the addition of 2 to 3 parts by weight of 1,3-diethyl-2-thiobarbituric acid (TBA) was determined to be an appropriate concentration with respect to 100 parts by weight of distilled water due to the solubility problem of TBA thereof. However, in the present invention, the solubility problem of TBA is solved by adding DMSO. By adding DMSO, 3.5 parts or more by weight of TBA can be dissolved in 100 parts by weight of distilled water or ethanol.
In the present example, DMSO (dimethyl sulfoxide) was added to the TBA solution. […] DMSO is an important solvent that dissolves both polar and nonpolar compounds, and can be used in combination with various organic solvents as well as water.
It was difficult to dissolve TBA in an amount of 3.5 parts by weight or more based on 100 parts by weight of the solvent in accordance with the method of the conventional art disclosed in published Patent No. 10-2013-0088623, and although dissolved, TBA was precipitated during the process.

CCN1C(=O)CC(=O)N(CC)C1=S [TBA, 1,3-diethyl-2-thiobarbituric acid]
TBA recrystallization [1]: TBA recrystallization decreased
TBA dissolved in distilled water ([2]; distilled water, no DMSO): not dissolved in distilled water
TBA dissolved in ethanol ([2]; ethanol, no DMSO): about 3.5%
amount of TBA that can be dissolved by the conventional method ([2]; per 100 parts by weight of solvent, no DMSO (method of KR 10-2013-0088623), precipitated during the process): < 3.5 parts by weight
